From article PMC6010140, “Design, synthesis and docking study of novel coumarin ligands as potential selective acetylcholinesterase inhibitors” (Journal of Enzyme Inhibition and Medicinal Chemistry, 2017)
Entries after “also recorded” stand apart in the source; their conditions may differ. Read-outs that look alike come from different tables or passages of the source.

Assays:
AChE [1] = settings: cited from earlier work
AChE [2] = target: AChE (Electrophorus electricus, UniProt O42275); settings: Lineweaver-Burk plot
Method: The plots were assessed by a weighted least-squares analysis that assumed the variance of velocity (v) to be a constant percentage of v for the entire data set.

BuChE = settings: cited from earlier work

Chain of AChE (Electrophorus electricus, UniProt O42275) (O42275 24-633): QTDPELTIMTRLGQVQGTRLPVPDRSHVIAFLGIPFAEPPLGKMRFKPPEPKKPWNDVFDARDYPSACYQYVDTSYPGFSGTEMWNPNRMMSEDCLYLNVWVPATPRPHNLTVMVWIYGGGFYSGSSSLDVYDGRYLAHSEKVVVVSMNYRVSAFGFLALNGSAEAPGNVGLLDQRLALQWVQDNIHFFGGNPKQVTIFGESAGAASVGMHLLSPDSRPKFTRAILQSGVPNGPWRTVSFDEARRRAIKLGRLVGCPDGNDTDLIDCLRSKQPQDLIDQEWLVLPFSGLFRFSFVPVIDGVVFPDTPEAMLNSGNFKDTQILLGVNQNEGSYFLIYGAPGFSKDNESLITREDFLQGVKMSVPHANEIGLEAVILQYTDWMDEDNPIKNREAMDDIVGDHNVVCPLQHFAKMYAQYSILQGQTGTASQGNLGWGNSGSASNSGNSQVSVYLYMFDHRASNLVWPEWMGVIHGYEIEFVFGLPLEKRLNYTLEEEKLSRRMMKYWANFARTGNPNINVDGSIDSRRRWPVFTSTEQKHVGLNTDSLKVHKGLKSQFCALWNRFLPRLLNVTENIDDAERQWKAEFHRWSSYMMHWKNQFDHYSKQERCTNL

Structure (SMILES)	IC50 (AChE [1]; authors' previous work) [µM]	IC50 (BuChE) [µM]	further results
O=C(Nc1nc(-c2cc3cc(Br)ccc3o2)cs1)Nc1ccccc1F [PBI-1]	3.85		
CCN(CC)CC(=O)Nc1nc(-c2cc3ccccc3oc2=O)cs1 [Compound 6c, 2-(Diethylamino)-N-(4-(2-oxo-2H-chromen-3-yl)thiazol-2-yl)acetamide]			type of AChE inhibition (AChE [2]): mixed-type inhibitor; also recorded: mixed-type inhibition
COc1cccc2cc(-c3csc(NC(=S)Nc4ccc(Cl)cc4)n3)c(=O)oc12 [PBI-2]	4.58		
